From US11053212B2, “Benzimidazole derivatives as bromodomain inhibitors” (GLAXOSMITHKLINE INTELLECTUAL PROPERTY DEVELOPMENT LIMITED, priority 2015, dated 2021)
Counter-ions that a name gives are not always drawn.

Tested on: LPS induced MCP-1 production
Assay: LPS induced MCP-1 production from human whole blood
Format: cell-based
Conditions: LPS 200 ng/mL, 18-24 hours
Excerpt: Measurement of LPS Induced MCP-1 Production from Human Whole Blood
Activation of monocytic cells by agonists of toll-like receptors such as bacterial lipopolysaccharide (LPS) results in production of key inflammatory mediators including MCP-1. Such pathways are widely considered to be central to the pathophysiology of a range of auto-immune and inflammatory disorders. Blood is collected in a tube containing Sodium heparin (Leo Pharmaceuticals) (10 units of heparin/mL of blood). 96-well compound plates containing 1 μL test sample in 100% DMSO were prepared (two replicates on account of donor variability). 130 μL of whole blood was dispensed into each well of the 96-well compound plates and incubated for 30 min at 37° C., 5% CO2. 10 μL of lipopolysaccharide (from Salmonella typhosa; L6386) made up in PBS (200 ng/mL final assay concentration) was added to each well of the compound plates. The plates were then placed in the humidified primary cell incubator for 18-24 hours at 37° C., 5% CO2. 140 μL of PBS was added to all wells of the compound plates containing blood. The plates were then sealed and centrifuged for 10 mins at 2500 rpm. 25 μL of cell supernatant was placed in a 96-well MSD plate pre-coated with human MCP-1 capture antibody. The plates were sealed and placed on a shaker at 600 rpm for 1 hour (r.t). 25 μL of Anti-human MCP-1 antibody labelled with MSD SULFO-TAG™ reagent is added to each well of the MSD plate (stock 50× was diluted 1:50 with Diluent 100, final assay concentration is 1 μg/mL). The plates were then re-sealed and shaken for another hour before washing with PBS. 150 μL of 2×MSD Read Buffer T (stock 4×MSD Read Buffer T was diluted 50:50 with de-ionised water) was then added to each well and the plates read on the MSD Sector Imager 6000. Concentration response curves for each compound were generated from the data and an pIC50 value was calculated.

mean pIC50, LPS induced MCP-1 production | IC50 (Homo sapiens, read-out: mean pIC50, LPS induced MCP-1 production (converted)) [nM] | Compound
7.5 |  | Cc1cc(-c2nc3cc(CN[C@H](C(=O)OC(C)C)[C@@H](C)O)ccc3n2CC2CCOCC2)cn(C)c1=O [edisylate salt of Example 303, 1,2-ethanedisulphonic acid salt of (2S,3R)-isopropyl 2-(((2-(1,5-dimethyl-6-oxo-1,6-dihydropyridin-3-yl)-1-((tetrahydro-2H-pyran-4-yl)methyl)-1H-benzo[d]imidazol-5-yl)methyl)amino)-3-hydroxybutanoate]
 | 25.1 | Cc1cc(-c2nc3cc(CN[C@H](C(=O)OC(C)C)[C@@H](C)O)ccc3n2CC2CCOCC2)cn(C)c1=O [Example 303, (2S,3R)-isopropyl 2-(((2-(1,5-dimethyl-6-oxo-1,6-dihydropyridin-3-yl)-1-((tetrahydro-2H-pyran-4-yl)methyl)-1H-benzo[d]imidazol-5-yl)methyl)amino)-3-hydroxybutanoate]
